Test results published in PubChem BioAssay AID248 (DTP/NCI, 2004).
Toxic doses and inconclusive results are not listed. Cut-off read from the data, not from the text of the source: active = T/C of 150% or more; inactive = T/C below 125%.

Test system: L1210 leukemia ip in BDF1 mice, survival T/C
Assay: NCI In Vivo Anticancer Drug Screen. Data for tumor model L1210 Leukemia (intraperitoneal) in B6D2F1 (BDF1) mice
Conditions: endpoint: mean survival time, higher = longer survival
Outline: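 Survival endpoint. Drug-treated group vs vehicle group, expressed as T divided by C. Tumor passaged by transplantation.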

[1] = dose: 100.0 mg/kg/injection, schedule: Q01DX001 (ip), vehicle: saline
[2] = dose: 200.0 mg/kg/injection, schedule: Q01DX001 (ip), vehicle: saline
[3] = dose: 100.0 mg/kg/injection, schedule: Q01DX009 (ip), vehicle: saline with Tween-80
[4] = dose: 200.0 mg/kg/injection, schedule: Q01DX009 (ip), vehicle: saline with Tween-80
[5] = dose: 100.0 mg/kg/injection, schedule: Q04DX003 (ip), vehicle: saline
[6] = dose: 200.0 mg/kg/injection, schedule: Q04DX003 (ip), vehicle: saline
[7] = dose: 400.0 mg/kg/injection, schedule: Q04DX003 (ip), vehicle: saline
[8] = dose: 100.0 mg/kg/injection, schedule: Q04DX003 (ip), vehicle: saline with Tween-80

Measured: T/C

O=C1CCc2ccsc21
inactive: dose: 100.0 mg/kg/injection, schedule: Q04DX002 (ip), vehicle: saline with Tween-80 97 % of control | dose: 200.0 mg/kg/injection, schedule: Q04DX002 (ip), vehicle: saline with Tween-80 97 % of control

Cc1ccc(C(=O)/C=C/c2ccc3c(c2)OCO3)c(C)c1
inactive: dose: 100.0 mg/kg/injection, schedule: Q04DX002 (ip), vehicle: DMSO 103 % of control | dose: 200.0 mg/kg/injection, schedule: Q04DX002 (ip), vehicle: DMSO 93 % of control | dose: 400.0 mg/kg/injection, schedule: Q04DX002 (ip), vehicle: DMSO 103 % of control

CN(C)CCSSCCN(C)C
inactive: dose: 50.0 mg/kg/injection, schedule: Q01DX001 (ip), vehicle: saline 102 % of control | [1] 104 % of control | [2] 96 % of control

CC(=O)[C@H]1CC[C@H]2[C@@H]3CCC4=CC(=O)[C@H](C)C[C@]4(C)[C@@]3(F)[C@@H](O)C[C@]12C
inactive: dose: 125.0 mg/kg/injection, schedule: Q01DX Z (sc), vehicle: steriod suspending solution 105 % of control | dose: 250.0 mg/kg/injection, schedule: Q01DX Z (sc), vehicle: steriod suspending solution 111 % of control | dose: 375.0 mg/kg/injection, schedule: Q01DX Z (sc), vehicle: steriod suspending solution 105 % of control | dose: 500.0 mg/kg/injection, schedule: Q01DX Z (sc), vehicle: steriod suspending solution 103 % of control

C=CC(C)C/C(CC)=N\NC(N)=O (configuration not stated)
inactive: dose: 75.0 mg/kg/injection, schedule: Q01DX001 (ip), vehicle: other 98 % of control | dose: 150.0 mg/kg/injection, schedule: Q01DX001 (ip), vehicle: other 103 % of control

CCCCNC(C)(C)C(=O)c1ccco1
inactive: dose: 50.0 mg/kg/injection, schedule: Q01DX009 (ip), vehicle: saline with Tween-80 100 % of control | [3] 97 % of control | [4] 111 % of control

CCCCOP(=O)(OCCCC)OC(C)C(C)=O (configuration not stated)
inactive: [1] 95 % of control | [5] 102 % of control | [2] 104 % of control | [6] 98 % of control | dose: 400.0 mg/kg/injection, schedule: Q01DX001 (ip), vehicle: saline 101 % of control | [7] 90 % of control

CNC(=O)N1CC(C)OC(C)C1 (configuration not stated)
inactive: [5] 115 % of control | dose: 200.0 mg/kg/injection, schedule: Q01DX009 (ip), vehicle: saline 92 % of control | [6] 105 % of control | dose: 400.0 mg/kg/injection, schedule: Q01DX009 (ip), vehicle: saline 107 % of control | [7] 101 % of control

CC[N+]1(Cc2ccccc2)CC2(CCCCC2)ON2C1CC(C)C2(C)C (configuration not stated)
inactive: [8] 91 % of control

COc1cc2c(cc1OC)C(C(C)C)NCC2O (configuration not stated)
inactive: [1] 98 % of control | [2] 96 % of control

O=C(O)c1cc(O)c(Br)c(O)c1
inactive: dose: 75.0 mg/kg/injection, schedule: Q01DX009 (ip), vehicle: other 93 % of control | [5] 106 % of control | dose: 150.0 mg/kg/injection, schedule: Q01DX009 (ip), vehicle: other 96 % of control | [6] 101 % of control | [7] 95 % of control

Cc1ccc(S(=O)(=O)/C=C(/I)c2ccccc2)cc1
inactive: [3] 104 % of control | [8] 95 % of control | [4] 100 % of control | dose: 200.0 mg/kg/injection, schedule: Q04DX003 (ip), vehicle: saline with Tween-80 92 % of control | dose: 400.0 mg/kg/injection, schedule: Q01DX009 (ip), vehicle: saline with Tween-80 94 % of control | dose: 400.0 mg/kg/injection, schedule: Q04DX003 (ip), vehicle: saline with Tween-80 104 % of control

CCO/C=C/C(=O)NC(=S)Nc1ccccc1
inactive: dose: 100.0 mg/kg/injection, schedule: Q01DX001 (ip), vehicle: saline with Tween-80 97 % of control | [3] 86 % of control | dose: 200.0 mg/kg/injection, schedule: Q01DX001 (ip), vehicle: saline with Tween-80 100 % of control | [4] 86 % of control | dose: 400.0 mg/kg/injection, schedule: Q01DX001 (ip), vehicle: saline with Tween-80 102 % of control
